According to US20090209426A1, “HERBICIDAL MIXTURE” (priority 2006, published 2009):

System: Digitaria nuda
Experiment: Test A: greenhouse postemergence herbicidal effect on Digitaria nuda, visual rating 21 DAT
Assay type: in vivo
Experimental: Square plastic pots (10 cm on each side) were filled to the rim with a Redi-earth® (Sun Gro Horticulture, Bellevue, Wash.) planting medium containing 55-65% of Canadian sphagnum peat moss, horticultural grade vermiculite, dolomitic limestone and a wetting agent. The soil was tamped firm to a uniform level of 2.5 cm below the rim of the pot. A measured amount of Digitaria nuda seed was scattered on the soil surface of each pot. Seeded pots were covered with approximately 50 mL of the same planting media, tamped, and set out on a greenhouse bench.
The pots were watered thoroughly at once and then as needed with a dilute balanced N—P—K fertilizer solution to provide 218 ppm nitrogen. Artificial lighting was used to supplement natural light to produce a 14-hour photoperiod. Greenhouse temperatures were targeted for 27° C. during the daytime and 21° C. at night. Once the plants reached their appropriate growth stage, the plants were sorted into test units prior to the herbicide application. Digitaria nuda was 5 to 7 cm in height and at the 3-leaf stage at the time of application.
Test chemicals included diuron in the form of KARMEX® Herbicide, which is a 80 weight (wt.) % wettable granule formulation, a mixture of diuron with hexazinone in the form of DUPONT™ K4™ Herbicide, which a granule formulation containing 468 g of diuron and 132 g of hexazinone per kg of formulation, another mixture of diuron with hexazinone in the form of ADVANCE™ Herbicide, which is a wettable granule formulation containing 533 g of diuron and 67 g of hexazinone per kg of formulation, and mesotrione in the form of the commercial product CALLISTO® Herbicide, which is a 40 weight-volume (wt.-vol.) % suspension concentrate containing 400 g of mesotrione per liter of formulation. The application rates for this test were selected based on the recommended use rate of each compound. Application rates of diuron were 1800 g a.i./ha alone from KARMEX® Herbicide, 936 g a.i./ha from DUPONT™ K4™ Herbicide in combination with 264 g a.i./ha of hexazinone, and 1599 g a.i./ha from ADVANCE™ Herbicide in combination with 201 g a.i./ha of hexazinone. […] Furthermore diuron was tested alone and together with hexazinone in combination with mesotrione at these application rates.
The herbicides were diluted in a measured amount of carrier solution to make stock solutions. The carrier solution was water containing 0.25% v/v of non-ionic adjuvant X-77. The stock solutions were all mixed for 10 minutes before aliquots were taken to make individual treatment solutions. Vials were then brought up to final spray volume of 24 mL. The treatments were sprayed at a pressure of 276 kPa through a T-Jet 8002E (Spraying Systems Co., Wheaton, Ill.) flat fan nozzle onto the surface of the plants in a stationary belt sprayer system calibrated to deliver 280 L/Ha. Treatments were replicated three times.
The sprayed plants were placed in the greenhouse for observation; height and leaf stages were then recorded. Plants were maintained by watering as needed and in the same manner in which they were propagated with respect to nutrition, light, and day length. Visual evaluations were made 21 days after treatment (DAT). A numerical rating system was used to describe the visual response of each treatment on a scale of 0 to 100. Numerical ratings were expressed as the percent effect as compared to the control plants, calculated as the mean of the three replicates. Zero (0%) indicates no visual response, and 100% indicates plant death or a moribund state expected to rapidly end in death.
Colby's equation was used to calculate the expected additive herbicidal effect of the mixtures of mesotrione with diuron, alone and in combination with hexazinone. Colby's equation (S. R. Colby, “Calculating Synergistic and Antagonistic Responses of Herbicide Combinations,” Weeds, 15(1), pp 20-22 (1967)) calculates the expected additive effect of herbicidal mixtures, and for two active ingredients is of the form: […]

SMILES | Herbicidal Effect Observed (mesotrione 5 g a.i./ha alone (CALLISTO)) [%] | Herbicidal Effect Observed (mesotrione 10 g a.i./ha alone) [%] | Herbicidal Effect Observed (mesotrione 20 g a.i./ha alone) [%] | Herbicidal Effect Observed (mesotrione 30 g a.i./ha alone) [%] | Herbicidal Effect Observed (mesotrione 40 g a.i./ha alone) [%] | Herbicidal Effect Observed (mesotrione 60 g a.i./ha alone) [%] | Herbicidal Effect Observed (mesotrione 90 g a.i./ha alone) [%] | Herbicidal Effect Observed (diuron 1800, hexazinone 0, mesotrione 0 g a.i./ha (KARMEX), mean of 3 replicates) [%]
CS(=O)(=O)c1ccc(C(=O)C2C(=O)CCCC2=O)c([N+](=O)[O-])c1 [Mesotrione, 2-[4-(methylsulfonyl)-2-nitrobenzoyl]-1,3-cyclohexanedione] | 3 | 17 | 33 | 50 | 53 | 73 | 88 | 
CN(C)C(=O)Nc1ccc(Cl)c(Cl)c1 [Diuron, N′-(3,4-dichlorophenyl)-N,N-dimethylurea] |  |  |  |  |  |  |  | 20
